Source: patent US20240092784A1, “CONDENSED HETEROCYCLIC COMPOUND” (NISSAN CHEMICAL CORPORATION, priority 2020, published 2024)
pIC50: −log10 of the molar value. Counter-ions that a name gives are not always drawn.

What follows are compounds tested against human SPR (Homo sapiens (Human), UniProt P35270) (assay: Evaluation Example 2: Measurement of human SPR inhibitory activity (seven concentrations, sepiapterin absorbance at 420 nm)). Details: Evaluation Example 2, seven concentrations 0.14 nM to 100 nM, 240 minutes at room temperature, read-out: IC50.
Type: biochemical
How it was run: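 His-tagged full-length human SPR (1-261) was expressed in E. coli and the tag removed. Enzyme at 150 ng/mL in 100 mM Tris-HCl pH 7.5/0.01% BSA was mixed with compound (0.14–100 nM, seven points), 120 μM sepiapterin and 160 μM NADPH, both as added-solution concentrations. After 240 min at room temperature, remaining sepiapterin was read at 420 nm to give percent inhibition.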

Sequence of human SPR (P35270 whole entry): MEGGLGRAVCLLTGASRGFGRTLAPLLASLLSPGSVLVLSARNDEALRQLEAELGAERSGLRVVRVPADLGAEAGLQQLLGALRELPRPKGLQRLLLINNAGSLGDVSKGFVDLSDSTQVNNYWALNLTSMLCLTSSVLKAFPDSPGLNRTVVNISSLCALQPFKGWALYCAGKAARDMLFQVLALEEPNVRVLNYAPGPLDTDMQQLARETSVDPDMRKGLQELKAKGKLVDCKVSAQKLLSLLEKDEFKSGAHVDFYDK

Compound | pIC50
CC(C)Cn1c(=O)c(C(=O)NC2CC2)c(O)n2ncc(/C=C/C(=O)N3CCN(C(C)C)CC3)c12 [compound 462, (E)-N-Cyclopropyl-7-hydroxy-4-isobutyl-3-(3-(4-isopropylpiperazin-1-yl)-3-oxoprop-1-en-1-yl)-5-oxo-4,5-dihydropyrazolo[1,5-a]pyrimidine-6-carboxamide] | 9.02
Cc1nn2c(O)c(C(=O)NC3CC3)c(=O)n(CC(C)(C)C)c2c1/C=C/C(=O)N1[C@@H](C)COC[C@@H]1C [Synthesis Example 624, N-Cyclopropyl-3-((E)-3-((3S,5S)-3,5-dimethylmorpholino)-3-oxoprop-1-en-1-yl)-7-hydroxy-2-methyl-4-neopentyl-5-oxo-4,5-dihydropyrazolo[1,5-a]pyrimidine-6-carboxamide] | 9.01
CC(C)(C)Cn1c(=O)c(C(=O)NC2CC2)c(O)n2nc(N)c(/C=C/C3CCOCC3)c12 [Synthesis Example 433, (E)-2-Amino-N-cyclopropyl-7-hydroxy-4-neopentyl-5-oxo-3-(2-(tetrahydro-2H-pyran-4-yl)vinyl)-4,5-dihydropyrazolo[1,5-a]pyrimidine-6-carboxamide hydrochloride] | 9.01
CC(C)Cn1c(=O)c(C(=O)NC2CC2)c(O)n2ncc(C(=O)NCc3ncccc3F)c12 [Synthesis Example 235, N6-Cyclopropyl-N3-((3-fluoropyridin-2-yl)methyl)-7-hydroxy-4-isobutyl-5-oxo-4,5-dihydropyrazolo[1,5-a]pyrimidine-3,6-dicarboxamide] | 9.05
COC(C)(C)Cn1c(=O)c(C(=O)NC2CC2)c(O)n2nc(-c3cccnc3N)cc12 [Synthesis Example 271, 2-(2-Aminopyridin-3-yl)-N-cyclopropyl-7-hydroxy-4-(2-methoxy-2-methylpropyl)-5-oxo-4,5-dihydropyrazolo[1,5-a]pyrimidine-6-carboxamide] | 8.97
Cc1nccnc1Nc1cc2n(CC(C)(C)C)c(=O)c(C(=O)NC3CC3)c(O)n2n1 [Synthesis Example 328, N-Cyclopropyl-7-hydroxy-2-((3-methylpyrazin-2-yl)amino)-4-neopentyl-5-oxo-4,5-dihydropyrazolo[1,5-a]pyrimidine-6-carboxamide] | 8.81
COC(C)(C)Cn1c(=O)c(C(=O)NC2CC2)c(O)n2nc(C(N)=O)cc12 [Synthesis Example 275, N6-Cyclopropyl-7-hydroxy-4-(2-methoxy-2-methylpropyl)-5-oxo-4,5-dihydropyrazolo[1,5-a]pyrimidine-2,6-dicarboxamide] | 9.17
CC(C)Cn1c(=O)c(C(=O)NC2CC2)c(O)n2ncc(/C=C/C(=O)N(C)CC#N)c12 [compound 498, (E)-3-(3-((Cyanomethyl)(methyl)amino)-3-oxoprop-1-en-1-yl)-N-cyclopropyl-7-hydroxy-4-isobutyl-5-oxo-4,5-dihydropyrazolo[1,5-a]pyrimidine-6-carboxamide] | 9.14
CC(C)Cn1c(=O)c(C(=O)NC2CC2)c(O)n2ncc(/C=C/C3CCOCC3)c12 [Synthesis Example 237, (E)-N-Cyclopropyl-7-hydroxy-4-isobutyl-5-oxo-3-(2-(tetrahydro-2H-pyran-4-yl)vinyl)-4,5-dihydropyrazolo[1,5-a]pyrimidine-6-carboxamide] | 9.04
CC(C)(F)Cn1c(=O)c(C(=O)NC2CC2)c(O)n2ncc(/C=C/C(=O)N3CCOCC3)c12 [Synthesis Example 390, (E)-N-Cyclopropyl-4-(2-fluoro-2-methylpropyl)-7-hydroxy-3-(3-morpholino-3-oxoprop-1-en-1-yl)-5-oxo-4,5-dihydropyrazolo[1,5-a]pyrimidine-6-carboxamide] | 9.15
Cc1nn2c(O)c(C(=O)NC3CC3)c(=O)n(CC(C)C)c2c1/C=C/C(=O)N1[C@H](C)CC[C@H]1C [Synthesis Example 616, N-Cyclopropyl-3-((E)-3-((2R,5R)-2,5-dimethylpyrrolidin-1-yl)-3-oxoprop-1-en-1-yl)-7-hydroxy-4-isobutyl-2-methyl-5-oxo-4,5-dihydropyrazolo[1,5-a]pyrimidine-6-carboxamide] | 8.95
Cc1nn2c(O)c(C(=O)NC3CC3)c(=O)n(CC(C)C)c2c1/C=C/C(=O)N1CCCC1C1CC1 (centres unmarked) [Synthesis Example 619, (E)-N-Cyclopropyl-3-(3-(2-cyclopropylpyrrolidin-1-yl)-3-oxoprop-1-en-1-yl)-7-hydroxy-4-isobutyl-2-methyl-5-oxo-4,5-dihydropyrazolo[1,5-a]pyrimidine-6-carboxamide] | 8.80
O=C(NC1CC1)c1c(O)n2ncc(/C=C/C(=O)N3CCOCC3)c2n(CC2CCC2)c1=O [Synthesis Example 381, (E)-4-(Cyclobutylmethyl)-N-cyclopropyl-7-hydroxy-3-(3-morpholino-3-oxoprop-1-en-1-yl)-5-oxo-4,5-dihydropyrazolo[1,5-a]pyrimidine-6-carboxamide] | 9.15
CC(C)Cn1c(=O)c(C(=O)NC2CC2)c(O)n2ncc(/C=C/C(=O)N3CCC[C@H]3CO)c12 [compound 510, (S,E)-N-Cyclopropyl-7-hydroxy-3-(3-(2-(hydroxymethyl)pyrrolidin-1-yl)-3-oxoprop-1-en-1-yl)-4-isobutyl-5-oxo-4,5-dihydropyrazolo[1,5-a]pyrimidine-6-carboxamide] | 9.07
Cc1nn2c(O)c(C(=O)NC3CC3)c(=O)n(CC(C)C)c2c1/C=C/C(=O)N1CCCC12CCOCC2 [Synthesis Example 631, (E)-N-Cyclopropyl-7-hydroxy-4-isobutyl-2-methyl-5-oxo-3-(3-oxo-3-(8-oxa-1-azaspiro[4.5]decan-1-yl)prop-1-en-1-yl)-4,5-dihydropyrazolo[1,5-a]pyrimidine-6-carboxamide] | 9.18
CC(C)Cn1c(=O)c(C(=O)NC2CC2)c(O)n2ncc(/C=C/C(=O)N3CCC(OC(F)(F)F)CC3)c12 [compound 465, (E)-N-Cyclopropyl-7-hydroxy-4-isobutyl-5-oxo-3-(3-oxo-3-(4-(trifluoromethoxy)piperidin-1-yl)prop-1-en-1-yl)-4,5-dihydropyrazolo[1,5-a]pyrimidine-6-carboxamide] | 8.75
CC(C)Cn1c(=O)c(C(=O)NC2CC2)c(O)n2nc(N)c(/C=C/C3CCCCC3)c12 [Synthesis Example 441, (E)-2-Amino-3-(2-cyclohexylvinyl)-N-cyclopropyl-7-hydroxy-4-isobutyl-5-oxo-4,5-dihydropyrazolo[1,5-a]pyrimidine-6-carboxamide] | 8.32
CC(C)Cn1c(=O)c(C(=O)NC2CC2)c(O)n2ncc(/C=C/C(=O)N3C[C@H](C)O[C@@H](C)C3)c12 [compound 490, N-Cyclopropyl-3-((E)-3-((2S,6S)-2,6-dimethylmorpholino)-3-oxoprop-1-en-1-yl)-7-hydroxy-4-isobutyl-5-oxo-4,5-dihydropyrazolo[1,5-a]pyrimidine-6-carboxamide] | 9.06
C/C(=C\c1cnn2c(O)c(C(=O)NC3CC3)c(=O)n(CC(C)C)c12)C(=O)N1CCC(F)(F)CC1 [Synthesis Example 253, (E)-N-Cyclopropyl-3-(3-(4,4-difluoropiperidin-1-yl)-2-methyl-3-oxoprop-1-en-1-yl)-7-hydroxy-4-isobutyl-5-oxo-4,5-dihydropyrazolo[1,5-a]pyrimidine-6-carboxamide] | 9.07
CC(C)(C)Cn1c(=O)c(C(=O)NC2CC2)c(O)n2nc(-c3cccnc3F)cc12 [Synthesis Example 283, N-Cyclopropyl-2-(2-fluoropyridine-3-yl)-7-hydroxy-4-neopentyl-5-oxo-4,5-dihydropyrazolo[1,5-a]pyrimidine-6-carboxamide] | 8.63
CC[C@H]1COCCN1C(=O)/C=C/c1cnn2c(O)c(C(=O)NC3CC3)c(=O)n(CC(C)C)c12 [compound 544, (S,E)-N-Cyclopropyl-3-(3-(3-ethylmorpholino)-3-oxoprop-1-en-1-yl)-7-hydroxy-4-isobutyl-5-oxo-4,5-dihydropyrazolo[1,5-a]pyrimidine-6-carboxamide] | 9.02
O=C(NC1CC1)c1c(O)n2ncc(/C=C/C(=O)N3C4CCC3COC4)c2n(CC2(F)CC2)c1=O [Synthesis Example 376, (E)-3-(3-(3-Oxa-8-azabicyclo[3.2.1]octan-8-yl)-3-oxoprop-1-en-1-yl)-N-cyclopropyl-4-((1-fluorocyclopropyl)methyl)-7-hydroxy-5-oxo-4,5-dihydropyrazolo[1,5-a]pyrimidine-6-carboxamide] | 9.14

Same assay, conditions: sepiapterin absorbance, Table 41, read-out: concentration at 50% inhibition of human SPR (IC50)

Compound | pIC50
Cc1nn2c(O)c(C(=O)NC3CC3)c(=O)n(CC(C)C)c2c1/C=C/C(=O)N1CCOc2ccccc21 [Synthesis Example 696, (E)-N-Cyclopropyl-3-(3-(2,3-dihydro-4H-benz[b][1,4]oxazin-4-yl)-3-oxoprop-1-en-1-yl)-7-hydroxy-4-isobutyl-2-methyl-5-oxo-4,5-dihydropyrazolo[1,5-a]pyrimidine-6-carboxamide] | 8.77
CC(C)Cn1c(=O)c(C(=O)NC2CC2)c(O)n2ncc(/C=C/C(=O)N3C4CCC3CC(F)(F)C4)c12 [Synthesis Example 719, (E)-N-Cyclopropyl-3-(3-(3,3-difluoro-8-azabicyclo[3.2.1]octan-8-yl)-3-oxoprop-1-en-1-yl)-7-hydroxy-4-isobutyl-5-oxo-4,5-dihydropyrazolo[1,5-a]pyrimidine-6-carboxamide] | 9.11
CC(C)Cn1c(=O)c(C(=O)NC2CC2)c(O)n2ncc(/C=C/C(=O)N(C)Cc3ccccn3)c12 [Synthesis Example 710, (E)-N-Cyclopropyl-7-hydroxy-4-isobutyl-3-(3-(methyl(pyridin-2-ylmethyl)amino)-3-oxoprop-1-en-1-yl)-5-oxo-4,5-dihydropyrazolo[1,5-a]pyrimidine-6-carboxamide] | 9.00
CC(C)Cn1c(=O)c(C(=O)NC2CC2)c(O)n2ncc(/C=C/C(=O)N3CCc4cc(Br)ccc43)c12 [Synthesis Example 735, (E)-3-(3-(5-Bromoindolin-1-yl)-3-oxoprop-1-en-1-yl)-N-cyclopropyl-7-hydroxy-4-isobutyl-5-oxo-4,5-dihydropyrazolo[1,5-a]pyrimidine-6-carboxamide] | 8.14
